Values after ≈ are worked out from the molar mass of the structure shown. Square brackets hold non-standard residues; d marks the D form. Peptide text beside a SMILES is read from it. 2Nal = N[C@@H](Cc1ccc2ccccc2c1)C(=O)O; Nlys = NCCCCNCC(=O)O
Key:
in vitro [1] = assay type: cell-based, human; conditions: human
Protocol: (§1) The haemolytic activity of the 24 structurally related peptides (Table 1) was evaluated in erythrocytes from four different species (human, canine, bovine and rat) employing standard methodology. The subsequent release of haemoglobin was used to assess haemolytic activity as function of peptide and peptidomimetic concentration, with concentrations ranging from 0.15 to 150 µM (Presented in whole in Supplementary information Table S1–S4).
(§2) Human and rat (Sprague–Dawley) blood samples were purchased by Bioreclamation IVT (Westbury, NY, USA), collected in tubes containing heparin as anticoagulant and stored at 4 °C before use. Dog and bovine whole blood was collected from in-house animals at Zoetis Animal Health, Kalamazoo, Michigan and stored at 4 °C in tubes containing heparin as anticoagulant. 10 mL of each whole blood sample were centrifuged at 1,500 × g for 5 min and the resulting plasma fraction was removed from the samples. The pellets were washed with an equal volume (10 mL) of saline, mixing by inversion. The centrifuging and washing steps were repeated 5 times. After the last washing step, a volume of PBS was added, and the resulting samples were diluted 1:10 with PBS to yield an RBC concentration of ~ 5 × 10^8 RBC/mL. The assay was performed in a 384-well polypropylene microplate (Greiner 784201, Greiner Bio-One International, GMBH) through a Bravo Liquid Handling Platform 384 system (Agilent Technologies, Santa Clara, CA, USA) according to the previously published procedures. The compounds were tested in serial 1:1 dilutions in PBS, with final concentrations ranging from 150 to 1.2 µM. Melittin was used as reference lytic peptide. 1% TritonX100 and PBS were used as positive and negative (diluent) controls, respectively. The final concentrations were obtained by adding to the wells 7 µL of each solution, melittin or PBS, followed by 63 µL of RBCs to each well. The plate was sealed, shaken on a plate shaker for 20 s, incubated for one hour at 37 °C. Finally, it was centrifuged at 1,500 × g for 5 min at room temperature. 60 µL of supernatants were removed from all plate wells via a Bravo 384 robot and transferred to a flat-bottomed 384-well plate (Greiner UV-Star #7810801, Greiner Bio-One International, GMBH). The plate was centrifuged at 1,000 g for 1 min to remove air bubbles and optical density was measured at 405 nm using a plate reader. Percentage of haemolysis was calculated with the following equation: %haemolysis=(absorbance of test sample)-absorbance of diluent/absorbance of positive control-absorbance of diluent×100.

human erythrocytes = experiment: in vitro; assay type: cell-based; conditions: for IC10 haemolysis: human erythrocytes; for IC50: red cells of human
Protocol: as §1, §2

in vitro [2] = assay type: cell-based, dog; conditions: dog
Protocol: as §1, §2

canine erythrocytes = experiment: in vitro; assay type: cell-based, dog; conditions: for IC10 haemolysis: canine erythrocytes; for IC50: red cells of canine
Protocol: as §1, §2

in vitro [3] = assay type: cell-based, rat (Sprague–Dawley); conditions: Sprague-Dawley, rat
Protocol: as §1, §2

rat erythrocytes = experiment: in vitro; assay type: cell-based, rat (Sprague–Dawley); conditions: for IC10 haemolysis: rat erythrocytes; for IC50: red cells of rat
Protocol: as §1, §2

in vitro [4] = assay type: cell-based, bovine; conditions: bovine
Protocol: as §1, §2

HaCaT cells = assay type: cell-based, human; conditions: 1 h
Protocol: (§3) An immortalised human keratinocyte (HaCaT) cell line (Gift from David Gram Naym at Bispebjerg Hospital, Denmark), a human liver cancer cell line (HepG2; ATCC HB-8065) and a human epithelial cervical cancer cell line (HeLa; ATCC CCL-2) were cultured to ∼90% confluence after 21–25 h of growth under standard conditions (5% CO2 at 37 °C). Cells were cultured in Dulbecco’s Modified Eagle’s Medium supplemented with 10% (v/v) fetal bovine serum (FBS). All culture media were supplemented with penicillin (100 IU/mL) and streptomycin (100 μg/mL). All cell media and supplements were obtained from Sigma-Aldrich (St. Louis, MO, United States). The 96-well plates were supplied by Corning Costar (Sigma-Aldrich, Brøndby, Denmark). Cell viability assessment was performed on cell monolayers grown to ∼90% confluence in 96-well plates by using the MTS/PMS assay as previously described. Briefly, the adhered cells were washed with PBS solution (37 °C) (ThermoFisher Scientific, Roskilde) and exposed for 1 h at 37 °C to 100 μL of peptides dissolved in the medium also used for culturing of the cell line (at concentrations in the range 0–1,000 μg/mL). The cells were subsequently washed twice with 37 °C PBS and then 100 μL of an MTS/PMS solution in media, consisting of 240 μg/mL MTS (Promega, Madison, WI, United States) and 2.4 mg/mL PMS (Promega, Madison, WI, United States), was added to the cells, which then were incubated for 1 h at 37 °C protected from light. A plate reader (SpectraMax i3X; Molecular devices, San Jose, CA) was used to measure the absorbance at 492 nm. The relative viability was calculated by using 0.2% (w/v) sodium dodecyl sulfate (SDS) as the positive control, while cells exposed to medium without test compound were used as the negative control.

HeLa cells = assay type: cell-based, human; conditions: 1 h
Protocol: as §3

[5] = system: Staphylococcus pseudintermedius; conditions: cited from earlier work
Staphylococcus aureus = system: Staphylococcus aureus; parameters: method as in PMID 30842436; conditions: cited from earlier work
Pseudomonas aeruginosa = system: Pseudomonas aeruginosa; parameters: method as in PMID 30842436; conditions: cited from earlier work
bovine erythrocytes = experiment: in vitro; assay type: cell-based; conditions: bovine erythrocytes
Protocol: as §1, §2

Structure (SMILES)	hemolysis at 1 h, 150 µM (in vitro [1]) [%]	IC10 haemolysis (human erythrocytes) [µM]	IC50 (human erythrocytes) [µM]	hemolysis at 1 h, 150 µM (in vitro [2]) [%]	IC10 haemolysis (canine erythrocytes) [µM]	IC50 (canine erythrocytes) [µM]	hemolysis at 1 h, 150 µM (in vitro [3]) [%]	IC10 haemolysis (rat erythrocytes) [µM]	IC50 (rat erythrocytes) [µM]	hemolysis at 1 h, 150 µM (in vitro [4]) [%]	IC50 (HaCaT cells) [µM]	IC50 (HeLa cells) [µM]	S.p. MIC ([5]; Staphylococcus pseudintermedius, Table S5, in µM) [µM]	MIC against Staphylococcus pseudintermedius [5] [µg/mL]	MIC against Staphylococcus aureus (Staphylococcus aureus) [µg/mL]	MIC against Pseudomonas aeruginosa (Pseudomonas aeruginosa) [µg/mL]	IC10 haemolysis (bovine erythrocytes) [µM]	Haemolytic activity (in words) (human erythrocytes)
CC(C)C[C@H](NC(=O)[C@H](Cc1cccc2ccccc12)NC(=O)[C@H](Cc1ccccc1)NC(=O)[C@@H](N)Cc1cccc2ccccc12)C(=O)N[C@@H](CCCCN)C(=O)N[C@@H](CCCCN)C(=O)N[C@@H](CCCCN)C(N)=O [Compound 5, (1-Nal)Ala-Phe-(1-Nal)Ala-Leu-Lys-Lys-Lys] (HELM PEPTIDE1{[N[C@@H](Cc1cccc2ccccc12)C(=O)[*:2]].F.[O=C([C@H](Cc1cccc2ccccc12)N[*:1])[*:2]].L.K.K.K.[am]}$$$$V2.0)	36	35.3	> 150	22.5	29.6	> 150	10.2	147.7	> 150	< 8	524	1030	15.1	16 (≈ 15.1 µM)	32 (≈ 30.3 µM)	> 64	–	–
CC(C)C[C@H](NC(=O)[C@H](CCCCN)NC(=O)[C@H](CCCCN)NC(=O)[C@@H](N)CCCCN)C(=O)N[C@@H](Cc1ccc2ccccc2c1)C(=O)N[C@@H](Cc1ccc(O)cc1)C(=O)N[C@@H](Cc1ccc2ccccc2c1)C(N)=O [Compound 17, Lys-Lys-Lys-Leu-(2-Nal)Ala-Tyr-(2-Nal)Ala] (HELM PEPTIDE1{K.K.K.L.[O=C([C@H](Cc1ccc2ccccc2c1)N[*:1])[*:2]].Y.[O=C([C@H](Cc1ccc2ccccc2c1)N[*:1])[*:2]].[am]}$$$$V2.0)	78.1	61.1	109	100	59.6	87	100	74.7	87.7	19.9	–	–	–	16 (≈ 14.9 µM)	> 64	> 64	81.4	–
CCCC[C@H](NC(=O)[C@H](CCCCN)NC(=O)[C@H](CCCCN)NC(=O)[C@@H](N)CCCCN)C(=O)N[C@@H](Cc1cccc2ccccc12)C(=O)N[C@@H](Cc1ccccc1)C(=O)N[C@@H](Cc1cccc2ccccc12)C(N)=O [Compound 20, Lys-Lys-Lys-Nle-(1-Nal)Ala-Phe-(1-Nal)Ala] (HELM PEPTIDE1{K.K.K.[Nle].[O=C([C@H](Cc1cccc2ccccc12)N[*:1])[*:2]].F.[O=C([C@H](Cc1cccc2ccccc12)N[*:1])[*:2]].[am]}$$$$V2.0)	27.5	91.3	> 150	36	45.8	> 150	< 8	> 150	> 150	20.1	–	–	–	16 to 32	> 64	16 (≈ 15.1 µM)	94.7	–
CC(C)C[C@@H](NC(=O)[C@H](CCCCN)NC(=O)[C@H](CCCCN)NC(=O)[C@@H](N)CCCCN)C(=O)N[C@H](Cc1cccc2ccccc12)C(=O)N[C@H](Cc1ccc(O)cc1)C(=O)N[C@H](Cc1cccc2ccccc12)C(N)=O [Compound 21, Lys-Lys-Lys-Leu-(1-Nal)Ala-Tyr-(1-Nal)Ala] (HELM PEPTIDE1{K.K.K.[dL].[O=C([C@@H](Cc1cccc2ccccc12)N[*:1])[*:2]].[dY].[O=C([C@@H](Cc1cccc2ccccc12)N[*:1])[*:2]].[am]}$$$$V2.0)	< 8	> 150	> 150	19.9	48.2	> 150	< 8	> 150	> 150	16	–	–	–	2 to 4	32 to 64	8 (≈ 7.46 µM)	109.7	–
CC(C)C[C@H](NC(=O)CN(CCCCN)C(=O)CN(CCCCN)C(=O)CNCCCCN)C(=O)N[C@@H](Cc1ccc2ccccc2c1)C(=O)N[C@@H](Cc1ccccc1)C(=O)N[C@@H](Cc1ccc2ccccc2c1)C(N)=O [Compound 23, N-Lys-N-Lys-N-Lys-Leu-(2-Nal)Ala-Phe-(2-Nal)Ala] (H-[Nlys][Nlys][Nlys]L[2Nal]F[2Nal]-NH2)	35.9	98.7	> 150	35.1	43.3	> 150	< 8	> 150	> 150	11.1	–	–	–	2 to 4	32 (≈ 30.3 µM)	32 (≈ 30.3 µM)	145.8	not highly lytic
CC(C)C[C@@H](NC(=O)[C@H](CCCCN)NC(=O)[C@H](CCCCN)NC(=O)[C@@H](N)CCCCN)C(=O)N[C@H](Cc1ccc2ccccc2c1)C(=O)N[C@H](Cc1ccc(O)cc1)C(=O)N[C@H](Cc1ccc2ccccc2c1)C(N)=O [Compound 24, Lys-Lys-Lys-Leu-(2-Nal)Ala-Tyr-(2-Nal)Ala] (HELM PEPTIDE1{K.K.K.[dL].[O=C([C@@H](Cc1ccc2ccccc2c1)N[*:1])[*:2]].[dY].[O=C([C@@H](Cc1ccc2ccccc2c1)N[*:1])[*:2]].[am]}$$$$V2.0)	23.4	76.72	> 150	38.5	45.0	> 150	< 8	> 150	> 150	29.8	–	–	–	4 to 8	16 to 32	32 (≈ 29.8 µM)	89.6	–

Reference: article PMC7414031, “Correlation between hemolytic activity, cytotoxicity and systemic in vivo toxicity of synthetic antimicrobial peptides” (Scientific Reports, 2020)
